Assays:
[1] = target: T1, Signal transducer and activator of transcription 3 (Homo sapiens, UniProt P40763); assay: Inhibition of Stat3 phosphorylation in human OVCAR3 cells by Western blotting analysis in normoxia condition
[2] = target: T1, Signal transducer and activator of transcription 3; assay: Inhibition of Stat3 phosphorylation in human PANC1 cells by Western blotting analysis in normoxia condition
[3] = target: T1, Signal transducer and activator of transcription 3; assay: Inhibition of Stat3 phosphorylation in human MDA-MB-468 cells by Western blotting analysis in normoxia condition
[4] = target: T1, Signal transducer and activator of transcription 3; assay: Inhibition of Stat3 phosphorylation in human MDA-MB-231 cells by Western blotting analysis in normoxia condition
[5] = target: T1, Signal transducer and activator of transcription 3; assay: Inhibition of Stat3 phosphorylation in human OVCAR3 cells by Western blotting analysis in hypoxia condition
[6] = target: T1, Signal transducer and activator of transcription 3; assay: Inhibition of Stat3 phosphorylation in human PANC1 cells by Western blotting analysis in hypoxia condition
[7] = target: T1, Signal transducer and activator of transcription 3; assay: Inhibition of Stat3 phosphorylation in human MDA-MB-468 cells by Western blotting analysis in hypoxia condition
[8] = target: T1, Signal transducer and activator of transcription 3; assay: Inhibition of Stat3 phosphorylation in human MDA-MB-231 cells by Western blotting analysis in hypoxia condition
[9] = target: T2, Hypoxia-inducible factor 1-alpha (Homo sapiens, UniProt Q16665); assay: Inhibition of HIF-1 alpha in human OVCAR3 cells by Western blotting analysis in hypoxia condition
T2 sequence (Q16665 whole entry): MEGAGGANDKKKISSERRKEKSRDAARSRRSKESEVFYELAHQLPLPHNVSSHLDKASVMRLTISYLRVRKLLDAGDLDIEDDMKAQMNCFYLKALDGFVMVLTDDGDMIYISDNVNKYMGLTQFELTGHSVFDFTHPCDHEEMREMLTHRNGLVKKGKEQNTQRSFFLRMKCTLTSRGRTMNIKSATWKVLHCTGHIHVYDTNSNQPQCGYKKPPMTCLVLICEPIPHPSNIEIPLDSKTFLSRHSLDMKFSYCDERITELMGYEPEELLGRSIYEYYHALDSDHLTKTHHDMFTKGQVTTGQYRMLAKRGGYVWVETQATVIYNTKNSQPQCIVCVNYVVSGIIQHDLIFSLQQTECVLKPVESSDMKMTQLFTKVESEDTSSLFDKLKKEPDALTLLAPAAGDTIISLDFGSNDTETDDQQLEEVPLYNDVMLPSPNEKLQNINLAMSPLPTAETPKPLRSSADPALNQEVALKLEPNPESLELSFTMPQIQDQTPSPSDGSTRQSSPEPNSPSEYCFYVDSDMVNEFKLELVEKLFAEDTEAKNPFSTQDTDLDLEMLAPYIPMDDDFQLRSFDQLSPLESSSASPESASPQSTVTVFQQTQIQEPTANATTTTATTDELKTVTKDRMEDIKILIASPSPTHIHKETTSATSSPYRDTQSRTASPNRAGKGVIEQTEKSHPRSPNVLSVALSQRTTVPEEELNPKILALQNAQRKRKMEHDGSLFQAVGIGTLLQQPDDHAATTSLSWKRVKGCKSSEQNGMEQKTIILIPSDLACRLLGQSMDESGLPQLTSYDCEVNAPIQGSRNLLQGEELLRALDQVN

[10] = target: T2, Hypoxia-inducible factor 1-alpha; assay: Inhibition of HIF-1 alpha in human PANC1 cells by Western blotting analysis in hypoxia condition
[11] = target: T2, Hypoxia-inducible factor 1-alpha; assay: Inhibition of HIF-1 alpha in human MDA-MB-468 cells by Western blotting analysis in hypoxia condition
[12] = target: T2, Hypoxia-inducible factor 1-alpha; assay: Inhibition of HIF-1 alpha in human MDA-MB-231 cells by Western blotting analysis in hypoxia condition

T1 sequence (P40763 whole entry): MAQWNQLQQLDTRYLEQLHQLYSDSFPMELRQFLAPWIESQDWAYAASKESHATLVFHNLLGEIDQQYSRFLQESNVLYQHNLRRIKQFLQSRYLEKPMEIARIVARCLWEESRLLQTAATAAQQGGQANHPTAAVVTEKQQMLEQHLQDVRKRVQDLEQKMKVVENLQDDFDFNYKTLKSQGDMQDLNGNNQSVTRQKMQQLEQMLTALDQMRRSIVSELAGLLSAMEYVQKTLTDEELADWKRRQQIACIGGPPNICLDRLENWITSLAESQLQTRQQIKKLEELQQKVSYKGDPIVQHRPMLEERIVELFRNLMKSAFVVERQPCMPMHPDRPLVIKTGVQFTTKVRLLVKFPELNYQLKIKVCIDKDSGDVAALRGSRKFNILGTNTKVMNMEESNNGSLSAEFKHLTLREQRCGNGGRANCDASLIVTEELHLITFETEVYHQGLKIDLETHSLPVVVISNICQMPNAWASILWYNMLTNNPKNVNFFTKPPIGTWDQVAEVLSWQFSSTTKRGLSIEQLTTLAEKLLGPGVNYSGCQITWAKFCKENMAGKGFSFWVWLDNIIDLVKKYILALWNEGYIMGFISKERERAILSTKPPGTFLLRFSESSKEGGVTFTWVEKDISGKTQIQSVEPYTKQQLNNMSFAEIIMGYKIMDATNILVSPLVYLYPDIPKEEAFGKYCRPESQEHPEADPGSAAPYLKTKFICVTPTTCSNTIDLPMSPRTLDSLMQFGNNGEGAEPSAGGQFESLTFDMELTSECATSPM

Compound `CN(C)CCCN1C(=O)c2ccc3c4ccc5c6c(ccc(c7ccc(c2c37)C1=O)c64)C(=O)N(CCCN(C)C)C5=O` has an IC50 [1] of 4.5 µM, an IC50 [2] of 4.5 µM and an IC50 [3] of 4.5 µM. For the same compound, the IC50 [4] was 4.5 µM, the IC50 [5] was 4.5 µM and the IC50 [6] was 4.5 µM. It also gave an IC50 [7] of 4.5 µM, an IC50 [8] of 4.5 µM and an IC50 [9] of 3000 nM. It also gave an IC50 [10] of 3000 nM, an IC50 [11] of 3000 nM and an IC50 [12] of 3000 nM.
